Results as given in patent US20260207769A1, “ANTIBODY DRUG CONJUGATES” (YALE UNIVERSITY, priority 2022, published 2026).

Tested on: DNA damage response proteins
Assay: Western blot of DNA damage response proteins in SKOV3 cells
Assay type: cell-based
Settings: 100 nM, 24, 48 and 72 hours
Procedure: SKOV3 ovarian cancer cells were treated with 100 nM of SN38, cD31N antibody, or cD31N-SN38 as indicated and collected at 24, 48, and 72 hours of treatment for Western blot analysis to measure specific protein markers of DNA damage response as previously described. […] In particular, 7H2AX levels increased over time.

CCc1c2c(nc3ccc(O)cc13)-c1cc3c(c(=O)n1C2)COC(=O)[C@]3(O)CC [SN38, SN-38]
protein expression of DNA damage response proteins: protein expression of DNA damage response proteins was increased
